Test results: patent US8003137B2, “Extracts of Aristolochia paucinervis pomel and uses thereof” (FasTrack Pharmaceuticals, Inc., priority 2008, dated 2011)

Test system: human red blood cells
Test: Hemolytic activity on heparinized whole blood
Assay type: cell-based
Conditions: 0- to 14-day incubation, all dilutions examined
Experimental: The hemolytic activity of A. paucinervis pomel extract on blood cells was examined, and compared with the ability of Triton-X to lyse these cells.
To perform these studies, heparinized-whole blood was incubated with dilutions of Triton-X-100 (0-1%) or 5× (4.4 mg/ml) A. paucinervis pomel extract for 40 minutes at room temperature. Plasma was collected after centrifugation at 1200×g for 5 minutes and diluted 1/20 with DPBS. The absorbance at 560 nm of 100 μl of each diluted plasma sample was measured. In a second experiment, the effects of incubating whole blood with dilutions of 5× (4.4 mg/ml) A. paucinervis pomel extract for 0, 3, 7 and 14 days was assessed. Experimental results are shown in FIG. 5A (cells treated with A. paucinervis pomel extract) and FIG. 5B (cells treated with Triton-X-100).

Triton-X
hemolytic activity on blood cells: toxic to blood cells
